Measurements taken from publication PMC4992173, “Divergent synthesis and identification of the cellular targets of deoxyelephantopins” (Nature Communications, 2016).

Legend:
[1] = target: T1, Src substrate cortactin (CTTN) (Homo sapiens, UniProt Q14247); assay: In situ competitive profiling in live MCF7 cells (LFQ): CTTN; type: cell-based; conditions: protein CTTN, 4 h, then 10 µM 24c, n=4
T1 construct: endogenous in cells; host or cells: MCF7
Excerpt: (§1) In our efforts to determine the direct molecular targets of deoxyelephantopin we first performed a gel-based competitive in situ proteomic profiling assay[41] […] While the greater conformational flexibility of probe 24c could potentially lead to more promiscuous target engagement relatively to deoxyelephantopin, it was favoured based on the fact that an alkyne moiety appended to the rigid scaffold of deoxyelephantopin may hinder some of its interactions. MCF7 cells were pretreated with various concentrations of deoxyelephantopin for 4 h, harvested, lysed and the lysates were treated with the fluorogenic probe 24c-Cy3 (10 μM; Supplementary Fig. 10). […] Furthermore, cells were pretreated with 20 μM concentration of deoxyelephantopin or 24c and the proteomic profiles were compared (Fig. 6b, Supplementary Fig. 11). Multiple bands were detected that were equally competed by both DEP and 24c, thus again confirming that 24c can be used as an acceptable clickable analogue of deoxyelephantopin in pulldown assays. Having established the optimal labelling conditions by SDS–PAGE, we next carried out a mass spectrometry-based competitive profiling assay[42] coupled with the method of stable isotope labelling of amino acids in culture (SILAC)[43]. […]
(§2) Figure 6 Proteome-wide identification of deoxyelephantopin targets. […] Quantification was performed using label-free quantification (LFQ) method (n=4). […]

PPARγ [2] = target: T2, PPARγ (Homo sapiens, UniProt P37231); assay: Gel-based in situ competition of PPARγ overexpressed in HeLa cells; type: cell-based; set-up: host or cells: HeLa; conditions: HeLa cells expressing PPARγ, 20 µM in situ 4 h, then 10 µM 24c-Cy3
T2 sequence (P37231 1-505): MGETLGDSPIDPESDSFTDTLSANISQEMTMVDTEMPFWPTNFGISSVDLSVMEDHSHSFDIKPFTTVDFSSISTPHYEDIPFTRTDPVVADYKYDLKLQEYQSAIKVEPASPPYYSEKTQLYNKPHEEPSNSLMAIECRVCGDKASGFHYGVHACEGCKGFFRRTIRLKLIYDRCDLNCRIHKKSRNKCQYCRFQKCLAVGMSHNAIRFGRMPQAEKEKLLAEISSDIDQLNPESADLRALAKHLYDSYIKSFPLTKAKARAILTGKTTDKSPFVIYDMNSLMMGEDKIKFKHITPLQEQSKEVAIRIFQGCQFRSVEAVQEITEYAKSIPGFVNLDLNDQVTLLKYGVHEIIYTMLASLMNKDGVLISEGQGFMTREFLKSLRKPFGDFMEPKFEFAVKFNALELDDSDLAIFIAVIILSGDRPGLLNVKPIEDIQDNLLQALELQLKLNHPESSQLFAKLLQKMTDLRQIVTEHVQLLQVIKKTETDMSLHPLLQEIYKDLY

PPARγ [3] = conditions: cited from earlier work
[4] = target: T3, FLYWCH family member 2 (FLYWCH2) (Homo sapiens, UniProt Q96CP2); assay: In situ competitive profiling in live MCF7 cells (LFQ): FLYWCH2; type: cell-based; conditions: protein FLYWCH2, 4 h, then 10 µM 24c, n=4
T3 construct: endogenous in cells; host or cells: MCF7
T3 sequence (Q96CP2 whole entry): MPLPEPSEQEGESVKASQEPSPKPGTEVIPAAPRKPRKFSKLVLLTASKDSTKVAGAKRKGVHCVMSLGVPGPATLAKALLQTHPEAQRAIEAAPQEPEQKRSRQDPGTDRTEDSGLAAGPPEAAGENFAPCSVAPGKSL
Excerpt: as §1, §2

T1 sequence (Q14247 whole entry): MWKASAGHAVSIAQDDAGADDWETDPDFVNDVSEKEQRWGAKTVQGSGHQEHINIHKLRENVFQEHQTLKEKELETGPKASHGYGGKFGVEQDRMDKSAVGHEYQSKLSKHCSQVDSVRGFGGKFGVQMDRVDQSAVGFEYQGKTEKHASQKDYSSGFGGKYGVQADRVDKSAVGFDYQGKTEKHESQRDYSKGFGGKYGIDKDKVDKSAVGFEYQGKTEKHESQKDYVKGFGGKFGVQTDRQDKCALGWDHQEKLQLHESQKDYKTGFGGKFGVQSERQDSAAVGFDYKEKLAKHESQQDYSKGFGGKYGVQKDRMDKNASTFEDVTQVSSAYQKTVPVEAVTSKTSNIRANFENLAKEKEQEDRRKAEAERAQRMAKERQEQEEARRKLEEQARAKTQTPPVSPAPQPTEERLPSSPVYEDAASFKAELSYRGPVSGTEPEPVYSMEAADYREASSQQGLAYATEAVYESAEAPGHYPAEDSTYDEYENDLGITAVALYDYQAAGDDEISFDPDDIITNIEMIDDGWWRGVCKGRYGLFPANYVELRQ

SMILES: C=C(C)C(=O)O[C@H]1CC2=C[C@@H](C/C(C)=C/[C@H]3OC(=O)C(=C)[C@H]13)OC2=O [deoxyelephantopin]
- LFQ ratio 20 µM Deoxyelephantopin/DMSO with 24c [1]: 0.22
- competition of PPARγ labelling by 24c-Cy3 (PPARγ [2]): efficient competition
- action on PPARγ (SPR) (PPARγ [3]): partial agonist
- LFQ ratio 20 µM Deoxyelephantopin/DMSO with 24c [4]: 0.19
